{"source": "patent US20210024499A1", "about": "“OXIDIZED BIS(3-INDOLYL)METHANES AND USES THEREOF” (Sanford Burnam Prebys Medical Discovery Institute, priority 2018, published 2021)", "key": {"MDA-MB-231 cells": {"system": "MDA-MB-231 cells", "assay": "PARP cleavage assay (Western blotting), MDA-MB-231", "assay_type": "cell-based", "conditions": "0.5 μM, 6 hours", "description": "(§1) Compound 1a had no effect under the same conditions (FIG. 1A). […] Compound 1a, 28a, 47a, 48a, 73a, 39a, 70a, 103a, 89a and 88a had no effect under the same conditions (FIG. 3B-C)."}, "[1]": {"system": "breast cancer cell lines (MDA-MB-231, BT549, HCC 1937, ZR-75-1, T47D, MCF-7)", "assay": "Cell viability (MTT) in various breast cancer cell lines", "assay_type": "cell-based", "conditions": "24 hours, FIG. 1E; regardless of hormone dependency", "description": "(§2) Cell viability was analyzed by using a colorimetric 3-(4,5-dimethylthiazol-[…]2-yl)-2,5-diphenyletetrazolium Bromide (MTT) assay that determines mitochondrial dehydrogenase activities in the living cells with a colorimetric method. Cells treated with test compounds were incubated with MTT and their effect on the viability of the cells was assayed by the ability of treated cells to reduce the yellow tetrazolium dye MTT to its insoluble formazan, which has a purple color.\nCompound 1 was effective in various breast cancer cell lines analyzed regardless of its hormone dependency, including MDA-MB-231 cells, BT549 cells, HCC 1937 cells, ZR-75-1 cells, T47D cells, and MCF-7 cells (FIG. 1E)."}, "Nur77−/− HeLa cells": {"system": "Nur77−/− HeLa cells", "assay": "Mitochondrial membrane potential (JC1), Nur77 knockout HeLa", "assay_type": "cell-based", "conditions": "1 μM, 6 h", "description": "(§3) Loss of mitochondrial membrane potential (Avm) represents one of the hallmarks of apoptosis. A JC-1 probe was employed to measure mitochondrial depolarization in cancer cells. MDA-MB-231 breast cancer cells were treated with different concentration of test compounds for 6 hours. JC-1 staining solution (5 μg/ml) was added at 37° C. for 20 min. After washing with PBS twice, mitochondrial membrane potentials were monitored by determining the relative amounts of dual emission from a multiple fluorescence reader. The fluorescence in cells was quantitatively analyzed by flow cytometry. Mitochondrial depolarization is depicted by an increase in the green/red fluorescence intensity ratio. ROS were monitored with the oxiadtion-senstive fluorescent probe 2′7′-dichlorodihydroflurescenin diacetate (DCF-DA).\n(§4) Furthermore, Nur77^−/−HeLa cells were more resistant than the parental HeLa cells to Compound 1 in its induction of the mitochondrial membrane potential loss measured by JC1 staining and in the release of mitochondrial ROS (as performed in Example A-12)."}, "Bcl-2−/−HeLa cells": {"system": "Bcl-2−/−HeLa cells", "assay": "PARP cleavage and caspase 3 activation, Bcl-2 knockout HeLa", "assay_type": "cell-based", "description": "Knocking out Nur77 and Bcl-2 from HeLa cells employed the CRISPR/Cas9 system. gRNA targeting sequence of Nur77 (5′-[…]-3′) and Bcl-2 (5′-[…]-3′) was cloned into gRNA cloning vector Px330 (Addgene, 71707) and confirmed by sequencing. To screen for cells lacking Nur77 or Bcl-2, HeLa cells were transfected with control vector and gRNA expression vectors, followed by G418 selection (0.5mg/m1). Single colonies were subjected to Western blotting using anti-Nur77 and anti-Bcl-2 antibody to select knockout cells.\nThe apoptotic effect of Compound lwas also evaluated in Bcl-2 genome knockout HeLa cells generated by CRISPR/Cas9 technology (Example A-5)."}, "[2]": {"target": "T1, Nur77-LBD interaction with GST-Bcl-2 (Homo sapiens, UniProt P22736)", "T1 construct": "incubated with purified His-Nur77-LBD (0.2 mg) in the presence of Compound 1; made in house", "T1 sequence (P22736 360-595 limits assumed)": "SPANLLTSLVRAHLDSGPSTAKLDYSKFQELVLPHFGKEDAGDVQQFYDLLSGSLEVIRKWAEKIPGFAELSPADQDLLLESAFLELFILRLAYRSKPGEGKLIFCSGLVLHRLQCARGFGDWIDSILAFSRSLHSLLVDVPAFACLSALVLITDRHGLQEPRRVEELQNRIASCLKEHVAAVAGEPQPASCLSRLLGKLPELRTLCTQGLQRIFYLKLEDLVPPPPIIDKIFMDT", "T1 sequence (P10415 whole entry partner, the tested form may be a part)": "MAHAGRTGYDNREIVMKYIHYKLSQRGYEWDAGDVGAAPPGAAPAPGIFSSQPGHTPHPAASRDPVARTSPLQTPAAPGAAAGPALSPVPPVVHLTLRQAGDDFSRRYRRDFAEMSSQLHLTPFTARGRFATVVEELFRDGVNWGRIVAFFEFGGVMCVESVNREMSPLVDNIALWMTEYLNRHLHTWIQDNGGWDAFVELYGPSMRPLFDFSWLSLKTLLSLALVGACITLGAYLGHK", "assay": "GST-pull down of Nur77-LBD by GST-Bcl-2", "assay_type": "binding", "conditions": "in vitro, GST-Bcl-2, FIG. 11", "description": "GST or GST-Bcl-2 fusion protein (0.5 mg) was immobilized on glutathione-Sepharose beads and incubated with purified His-Nur77-LBD (0.2 mg) in the presence of Compound 1 for 1 hour at room temperature to promote GST-Bcl-2 interaction with His-Nur77-LBD. Bound Nur77-LBD was analyzed by Western blotting."}, "MEFs [3]": {"system": "MEFs", "assay": "Cell viability (MTT), MEFs", "assay_type": "cell-based, mouse", "conditions": "6 hours, MTT (FIG. 8)", "description": "as §2\nThe apoptotic effect of Compound 1 was examined in mouse embryonic fibroblast (MEF) and MEF lacking Nur77 (Nur77^−/−MEF). […] Induction of PARP cleavage (as performed in Example A-7) in MEFs by Compound 1 at 0.5 μM was also attenuated in Nur77^−/−MEFs."}, "Bcl-2−/−MEF cells": {"system": "Bcl-2−/−MEF cells", "assay": "DAPI staining for apoptosis, Bcl-2-/- MEFs", "assay_type": "cell-based, mouse", "conditions": "0.5 μM", "description": "(§5) The apoptotic effect of Compound 1 was also examined in mouse embryonic fibroblast (MEF) and MEF lacking Bcl-2 (Bcl-2^−/−MEF). […] Apoptotic cells were counted in 200 cells."}, "HeLa cells": {"system": "HeLa cells", "assay": "Mitochondrial membrane potential (JC1), HeLa", "assay_type": "cell-based", "conditions": "6 h", "description": "as §3, §4\nIn addition, Bcl-2^−/−HeLa cells were more resistant than the parental HeLa cells to Compound 1 in its induction of the mitochondrial membrane potential loss measured by JC1 staining and in the release of mitochondrial ROS (as performed in Example A-12)."}, "MEFs [4]": {"system": "MEFs", "assay": "DAPI staining for apoptosis, MEFs", "assay_type": "cell-based, mouse", "conditions": "0.5 μM", "description": "as §5"}, "pBind-RXRa-LBD and Nur77": {"system": "pBind-RXRa-LBD and Nur77", "assay": "Mammalian one hybrid assay, Gal4-RXRa-LBD with Nur77", "assay_type": "cell-based", "conditions": "cotransfection of pBind-RXRa-LBD and Nur77, Dual-Luciferase (FIG. 10)", "description": "HEK293T cells were co-transfected with pG5 Luciferase reporter together with the plasmid encoding RXRa-LBD fused with the Gal4 DNA-binding domain and other expression plasmids. After transfection, cells were treated with DMSO or a test compound, and assayed by using the Dual-Luciferase Reporter Assay System (Promega). Transfection efficiency was normalized to Renilla luciferase activity.\nTo exclude the possibility that Compound 1 acted on RXRa, Glu453 and Glu456 in the RXRa activation function 2 (AF2) region were substituted with Ala and the resulting mutant, RXRa-LBD/E453,6A, was used."}, "SW480 cells": {"system": "SW480 cells", "assay": "PARP cleavage assay (Western blotting), SW480", "assay_type": "cell-based", "conditions": "6 hours", "description": "as §1"}, "HCT116 cells": {"system": "HCT116 cells", "assay": "PARP cleavage assay (Western blotting), HCT116", "assay_type": "cell-based", "conditions": "6 hours", "description": "as §1"}, "MEF cells": {"system": "MEF cells", "assay": "Mitochondrial membrane potential (JC1), MEF", "assay_type": "cell-based, mouse", "conditions": "0.5 μM, 6 h", "description": "as §3\nIn addition, Bcl-2^−/−MEF cells were more resistant than the parental MEF cells to Compound 1 in its induction of the mitochondrial membrane potential loss measured by JC1 staining and in the release of mitochondrial ROS (as performed in Example A-12)."}}}
{"smiles": "FC(F)(F)c1ccc([C+](c2c[nH]c3ccccc23)c2c[nH]c3ccccc23)cc1", "note": "[Compound 1, Bis(1H-indol-3-yl)(4-(trifluoromethyl)phenyl)methylium methanesulfonate]", "values": [{"measurement": "PARP cleavage", "setting": "MDA-MB-231 cells", "result": "effectively induced PARP cleavage"}, {"measurement": "cell viability (MTT)", "setting": "[1]", "result": "effective"}, {"measurement": "JC1 green to red ratio", "setting": "Nur77−/− HeLa cells", "result": "no significant change"}, {"measurement": "induction of PARP cleavage and caspase 3 activation", "setting": "Bcl-2−/−HeLa cells", "result": "strongly suppressed"}, {"measurement": "Nur77-LBD pulled down (GST-pull down)", "setting": "[2]", "result": "concentration dependent manner"}, {"measurement": "growth of MEFs", "setting": "MEFs [3]", "result": "dose-dependently inhibited the growth of MEFs"}, {"measurement": "cells with chromatin condensation and nuclear fragmentation (DAPI)", "setting": "Bcl-2−/−MEF cells", "result": 14, "unit": "%"}, {"measurement": "JC1 green to red ratio (control 100%)", "setting": "HeLa cells; 0.5 μM", "result": 195, "unit": "%"}, {"measurement": "JC1 green to red ratio (control 100%)", "setting": "HeLa cells; 1 μM", "result": 190, "unit": "%"}, {"measurement": "cells with chromatin condensation and nuclear fragmentation (DAPI)", "setting": "MEFs [4]", "result": 40, "unit": "%"}, {"measurement": "reporter transcriptional activity", "setting": "pBind-RXRa-LBD and Nur77", "result": "dose dependently induced the reporter activity"}, {"measurement": "concentration inducing PARP cleavage (dose dependent study)", "setting": "SW480 cells", "result": "submicromolar concentrations"}, {"measurement": "PARP cleavage", "setting": "HCT116 cells; 0.5 μM, Western blotting", "result": "effectively induced PARP cleavage"}, {"measurement": "concentration inducing PARP cleavage (dose dependent study)", "setting": "HCT116 cells", "result": "submicromolar concentrations"}, {"measurement": "JC1 green to red ratio (control 100%)", "setting": "MEF cells", "result": 400, "unit": "%"}]}
